These results are taken from patent publication US20040259942A1, “Modulation of stat activity” (priority 2001, published 2004).

Each structure is given as a SMILES string.

The test system of assay [1] is MCF-10F cells. In words: Cell proliferation assay (cell counting). Conditions: non-tumorigenic breast epithelial cells; 48 hours. The class given is cell-based, human. How it is done:
Breast cancer cell lines (BR293, MCF-7 and MDA-MB-468) were maintained in Minimum Essential Medium Eagle (MEM, Sigma) supplemented with 10% foetal calf serum (FCS), 1% MEM non-essential amino acids, 1% glutamine and 1% penicillin-streptomycin at 37° C. under 5% CO2. […] These cell lines are well-known, and widely available to persons in the field. In particular, the following lines are deposited with the American Type Culture Collection (ATTC) with the following identifying codes:
(§1) Equal numbers of BR293, MCF-10F, MCF-7, MDA-MB-468, HKEK293 and COS1 cells were seeded in the appropriate growth medium into 10 cm dishes. Cells were allowed to grow in the presence of various concentrations of OdDHL or OHHL for 24 or 48 hours. For the 48-hour time points, fresh medium containing the appropriate inhibitor was applied to the cells after 24 hours. Controls were allowed to grow for 48 hours in the absence of inhibitor. Thereafter, all the cells were washed twice with ice cold PBS, harvested and counted under a phase-contrast microscope. Values are expressed as averages ±S.D. (n=3).

For assay [2], the system named is COS1 cells. Briefly: Cell proliferation assay (cell counting). The format is cell-based, simian. Conditions: cells expressing low levels of STAT proteins; 48 hours. The protocol: as §1
The test system of assay [3] is p46/p54 JNK/SAPK. Briefly: JNK/SAPK phosphorylation in anisomycin-treated cells (Western blotting). The format is cell-based, human. The note with it: BR293 cells treated with anisomycin. The protocol:
ERKs are unaffected by OdDHL (a) BR293 cells were serum-starved (lane 1) or starved and stimulated with TPA for 30 min alone (lane 2) or in the presence of increasing concentrations of OdDHL (lanes 3-6) or 100 μM OHHL (lane 7). Cell lysates were prepared and analysed by Western blotting for ERK phosphorylation with an antibody specific for phospho-ERK½ (upper panel) and for ERK content with an antibody against ERKs (lower panel). (b) BR293 cells were serum-starved (lane 1) or starved and stimulated with Anisomycin for 30 min alone (lane 2) or in the presence of increasing concentrations of OdDHL (lanes 3-6) or 100 μM OHHL (lane 7). Cell lysates were prepared and analysed by Western blotting for JNK/SAPK phosphorylation with an antibody specific for phospho-JNKs (upper panel) and for SAPK/JNK content with an antibody against JNKs (lower panel). (c) BR293 cells were treated as described in (b) and lysates were analysed by Western blotting for p38^MAPK phosphorylation with an antibody specific for phospho-p38 (upper panel) and for p38 content with an antibody against p38 (lower panel).
(A western blot detects proteins with antibodies after separation by electrophoresis.)

Assay [4] has as its system STAT3. Briefly: EGF-induced STAT3 phosphorylation (Western blotting, Y705). The format is cell-based, human. The note with it: MDA-MB-468 cells; co-treatment 100 μM. The protocol: EGF-R was immunoprecipitated from cell lysates and analysed by Western blotting tyrosine phosphorylation with an anti phosphotyrosine antibody (upper panel, top) and EGF-R content with an anti-EGF-R antibody (lower panel, top). Cell lysates were analysed in parallel for STAT3 phosphorylation with an antibody specific for STAT3 phosphorylated on Y705 (upper panel, bottom) and for STAT3 content with an antibody for STAT3 (lower panel, bottom). […] The inclusion of an anti-STAT3 antibody in duplicate binding reactions (even lanes) identifies STAT3-containing heterodimers (3:1), as indicated to the right of the panel. (c) COS-1 cells were transfected with an expression vector for STAT3, a STAT3-responsive luciferase reporter (SIE2-luc) and a control gene for β-galactosidase. […] After 6 hours cells were harvsted and reporter gene expression analysed. Results are normalised against β-galactosidase values and expressed as averages +/−SD (n=3).

Assay [5] has as its system MCF-7 cells. In words: Cell proliferation assay (cell counting). The class given is cell-based, human. The note with it: over a 48-hour period. The protocol:
as §1

The test system of assay [6] is HEK293 cells. In words: Cell proliferation assay (cell counting). Conditions: cells with constitutive STAT3 activity; 48 hours. The format is cell-based, human. The protocol: as §1
Assay [7] deals with T1, JAK2 (Homo sapiens, UniProt O60674).
T1 construct: endogenous in cells; host or cells: BR293
Briefly: Serum-induced JAK2 tyrosine phosphorylation (immunoblot). The note with it: preliminary data, unpublished. The format is cell-based. The protocol: For immunoprecipitation and immunoblotting experiments, cells were grown to confluence in 10 cm dishes and maintained in full medium or starved in serum-free medium overnight before the application of appropriate stimuli. Lysates were prepared in TBSN buffer (50 mM Tris-HCl pH7.5, 150 mM NaCl, 1 mM EDTA, 1% NP-40) supplemented with protease inhibitors (1 mM Na3 VO4, 10 mM Na4P2O7, 10 mM NaF, 5 mM EGTA, 10 mM Benzamidine, 0.2 mM PMSF and 1 μg/ml each of leupeptin, aprotinin, pepstatin). Lysates were cleared by centrifugation at 16,000×g for 10 minutes and used directly for immunoprecipitations or stored at −20° C. for further use.
Equal amounts of lysates were incubated with the appropriate antibody for 2 hours at 4° C.
Immune complexes were then allowed to bind to protein A-Sepharose beads for 1 hour at 4° C. and collected by centrifugation. Immunoprecipitates were washed three times in 100 mM Tris-HC1 pH 7.5, […], 1 mM EDTA, 0.1 mM PMSF, 0.5% NP-40. Thereafter, samples were taken up in sodium dodecyl sulphate (SDS) loading buffer and boiled for 5 min.
Samples were separated by electrophoresis through 6% polyacrylamide-SDS gels. Proteins were then transferred to polyvinylidene difluoride (PVDF) membranes with a semi-dry electroblotting apparatus. […]

Assay [8] concerns poly ADP-ribose polymerase (PARP). Briefly: PARP cleavage by Western blotting. The format is cell-based, human. Conditions: 100 μM, 18 hours. The protocol: OdDHL induces apoptosis of BC cells (a) MCF-7 cells were cultured in full medium alone or in the presence of 1001M OdDHL or 100 μM OHHL. After 18 hours cells were fixed, stained with DAPI and examined by confocal microscopy. Left-hand panels show DAPI, right-hand panels show the corresponding phase contrast and middle panels the image overlays. (b) MDA-MB-468 cells were cultured in full medium alone or in the presence of 100 μM OdDHL or 100 μM OHHL. After 18 hours cells were fixed, stained and examined as in (a). (c) BR293, MCF-7 and MDA-MD-468 cells were cultured in full medium alone (lanes 1, 3, 5) or in the presence of 100 μM OdDHL (lanes 2, 4, 6) or 400 μM etoposide (lane 7). After 18 hours cells were lysed and analysed for PARP cleavage by Western blotting with an anti-PARP antibody. Full length PARP is labelled and the lower arrow indicates the major caspase cleavage fragment.

T1 sequence (O60674 whole entry): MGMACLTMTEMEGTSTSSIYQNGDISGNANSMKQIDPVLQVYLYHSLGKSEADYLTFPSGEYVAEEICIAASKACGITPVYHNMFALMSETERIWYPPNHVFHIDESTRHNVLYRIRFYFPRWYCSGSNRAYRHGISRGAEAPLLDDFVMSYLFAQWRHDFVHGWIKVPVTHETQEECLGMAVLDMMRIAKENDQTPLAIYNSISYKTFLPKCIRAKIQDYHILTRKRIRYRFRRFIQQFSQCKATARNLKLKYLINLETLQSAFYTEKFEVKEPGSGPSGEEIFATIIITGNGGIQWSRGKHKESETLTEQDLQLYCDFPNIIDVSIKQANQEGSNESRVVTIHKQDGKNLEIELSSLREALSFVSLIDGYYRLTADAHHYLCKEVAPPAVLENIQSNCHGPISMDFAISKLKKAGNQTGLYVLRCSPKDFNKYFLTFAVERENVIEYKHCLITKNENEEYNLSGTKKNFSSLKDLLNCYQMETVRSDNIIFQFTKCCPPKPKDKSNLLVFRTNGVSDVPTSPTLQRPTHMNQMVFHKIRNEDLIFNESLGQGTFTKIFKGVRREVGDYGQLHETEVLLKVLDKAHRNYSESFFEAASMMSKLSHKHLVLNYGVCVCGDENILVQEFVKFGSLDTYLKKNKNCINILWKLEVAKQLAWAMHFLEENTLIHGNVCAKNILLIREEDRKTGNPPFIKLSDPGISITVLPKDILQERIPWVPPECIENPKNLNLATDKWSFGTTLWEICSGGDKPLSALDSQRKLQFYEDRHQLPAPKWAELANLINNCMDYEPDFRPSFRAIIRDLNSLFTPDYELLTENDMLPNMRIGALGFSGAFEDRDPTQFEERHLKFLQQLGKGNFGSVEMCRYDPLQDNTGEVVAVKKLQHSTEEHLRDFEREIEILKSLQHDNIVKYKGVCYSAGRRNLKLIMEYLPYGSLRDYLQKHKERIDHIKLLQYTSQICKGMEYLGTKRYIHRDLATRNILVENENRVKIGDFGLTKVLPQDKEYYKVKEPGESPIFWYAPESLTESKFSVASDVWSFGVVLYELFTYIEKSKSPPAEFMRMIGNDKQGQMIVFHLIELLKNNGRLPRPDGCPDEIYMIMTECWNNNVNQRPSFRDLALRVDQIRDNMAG

With `CCCCCCCCCC(=O)CC(=O)N[C@H]1CCOC1=O` [OdDHL, N-(3-oxo-dodecanoyl)-L-homoserine lactone], the figures for the effect on proliferation result in assay [1] and in assay [2] were “slight” and “unaffected”, respectively. Besides, the “p46/p54 JNK/SAPK phosphorylation” value in assay [3] is recorded as “modest but reproducible inhibition”. Moreover, in assay [4], the “STAT3 phosphorylation in response to EGF” value is on record as “augmented”. Moreover, the inhibition of proliferation in assay [5] is 70%-80%. In addition, the “growth sensitivity to treatment” value in assay [6] is recorded as “sensitive”. Besides, the “JAK2 phosphorylation in serum-stimulated cells” value in assay [7] is listed as “does not interfere with JAK2 phosphorylation”. The PARP cleavage entry in assay [8] (BR293 cells) was “characteristic cleavage fragment was detected”; in assay [8] (MCF-7 cells) it was “induced PARP cleavage”; in assay [8] (MDA-MB-468 cells, compared with 400 μM etoposide), “to the same extent as etoposide”.
